We go through four compounds from paper PMC5884906, “Single Administration of HBK-15—a Triple 5-HT1A, 5-HT7, and 5-HT3 Receptor Antagonist—Reverses Depressive-Like Behaviors in Mouse Model of Depression Induced by Corticosterone” (Molecular Neurobiology, 2017).

Molecules are shown by their SMILES. “And” between values parts separate entries of the source, which are not always exact repeats. Identical values can stand only once.

Assay [1] relates to corticosterone-treated mice. The experiment in a line: elevated plus maze, chronic administration, corticosterone model. The assay is classed as in vivo. The procedure: The doses and route of administration of the studied compounds were based on our previous experiments. […] Mice were injected with corticosterone (s.c., 20 mg/kg) at random times during the light phase for 21 consecutive days (Fig. 1b). The dose and route of administration of corticosterone was based on studies performed by Zhao and colleagues. Thirty minutes before, corticosterone injection mice were given (i.p.) saline, HBK-14 (1.25 or 2.5 mg/kg), HBK-15 (0.625 or 1.25 mg/kg), or fluoxetine (10 mg/kg) (Fig. 1b). Control mice received (i.p.) saline and 30 min later saline containing 0.1% dimethyl sulfoxide (DMSO) and 0.1% Tween-80 (s.c.). The experimental groups consisted of eight randomly selected animals. After the end of the procedure, animals were tested in the sucrose preference test, forced swim test, elevated plus maze test, and spontaneous locomotor activity test. Following behavioral testing, rodents were scarified and their hippocampi collected for biochemical analysis. The elevated plus maze was performed according to the method previously described. […] Each mouse was individually placed at the central field of the apparatus with the head turned toward one of the closed arms. […] The device was disinfected with 70% ethanol after each mouse. The number of entries to open and closed arms and time spent in the open and closed arms were measured. The experiments were recorded and scored using aLab.io software by a trained observer blind to the treatments.

In assay [2] the test system is corticosterone-treated mice. The experiment in a line: sucrose preference test, chronic administration, corticosterone model. The assay is classed as in vivo. As to conditions: for effect on corticosterone-induced decrease in sucrose intake: 21 days. The procedure: The dose and route of administration of corticosterone was based on studies performed by Zhao and colleagues. Thirty minutes before, corticosterone injection mice were given (i.p.) saline, HBK-14 (1.25 or 2.5 mg/kg), HBK-15 (0.625 or 1.25 mg/kg), or fluoxetine (10 mg/kg) (Fig. 1b). Control mice received (i.p.) saline and 30 min later saline containing 0.1% dimethyl sulfoxide (DMSO) and 0.1% Tween-80 (s.c.). The experimental groups consisted of eight randomly selected animals. After the end of the procedure, animals were tested in the sucrose preference test, forced swim test, elevated plus maze test, and spontaneous locomotor activity test. Following behavioral testing, rodents were scarified and their hippocampi collected for biochemical analysis. The sucrose preference test was conducted according to the slightly modified methods described by Liu and colleagues and Filho and colleagues. The test was performed before and after the administration of corticosterone. Briefly, before the proper test, mice were housed singly and given 72 h training to acclimate to the test procedures. In the first 24 h, access ad libitum to two feeding bottles of 1% (w/v) sucrose solution was given to each mouse. After 24 h, one bottle was replaced with tap water for the next 24 h. Then, mice were deprived of water and food for the third 24 h. On the test day, the weight of each bottle (1% sucrose solution and tap water) was recorded. Test animals were then given the bottles of 1% sucrose and water for 24 h. The consumed liquid weight was measured based on the weight of each bottle of fluids after sucrose preference test minus the original starting weight. The percentage of sucrose intake was calculated using the following equation: %Sucrose intake=Sucrose intake/Sucrose intake+water intake⋅100%

In assay [3] the test system is corticosterone-treated mice. The experiment in a line: spontaneous locomotor activity, chronic administration. The assay is classed as in vivo. As to conditions: 6 min session. The procedure: The doses and route of administration of the studied compounds were based on our previous experiments. […] Mice were injected with corticosterone (s.c., 20 mg/kg) at random times during the light phase for 21 consecutive days (Fig. 1b). The dose and route of administration of corticosterone was based on studies performed by Zhao and colleagues. Thirty minutes before, corticosterone injection mice were given (i.p.) saline, HBK-14 (1.25 or 2.5 mg/kg), HBK-15 (0.625 or 1.25 mg/kg), or fluoxetine (10 mg/kg) (Fig. 1b). Control mice received (i.p.) saline and 30 min later saline containing 0.1% dimethyl sulfoxide (DMSO) and 0.1% Tween-80 (s.c.). The experimental groups consisted of eight randomly selected animals. After the end of the procedure, animals were tested in the sucrose preference test, forced swim test, elevated plus maze test, and spontaneous locomotor activity test. Following behavioral testing, rodents were scarified and their hippocampi collected for biochemical analysis. The locomotor activity was performed as previously described. Locomotor activity was recorded individually for each mouse using activity cages made of clear Perspex (40 cm × 40 cm × 31 cm, Activity Cage 7441, Ugo Basile, Italy). The cages were supplied with I.R. horizontal beam emitters connected to a counter for the recording of light-beam interruptions. Each mouse was placed in a cage for a 30-min habituation period. […] The cages were disinfected with 70% ethanol after each mouse.

The subject of assay [4] is NGF level in the hippocampus. Briefly: NGF level in the hippocampus (ELISA), chronic administration. In kind it is in vivo, mice. The settings on record: for effect on corticosterone-induced decrease in NGF level in the hippocampus: 21 days. How it is done: (§1) The doses and route of administration of the studied compounds were based on our previous experiments. […] Mice were injected with corticosterone (s.c., 20 mg/kg) at random times during the light phase for 21 consecutive days (Fig. 1b). The dose and route of administration of corticosterone was based on studies performed by Zhao and colleagues. Thirty minutes before, corticosterone injection mice were given (i.p.) saline, HBK-14 (1.25 or 2.5 mg/kg), HBK-15 (0.625 or 1.25 mg/kg), or fluoxetine (10 mg/kg) (Fig. 1b). Control mice received (i.p.) saline and 30 min later saline containing 0.1% dimethyl sulfoxide (DMSO) and 0.1% Tween-80 (s.c.). The experimental groups consisted of eight randomly selected animals. After the end of the procedure, animals were tested in the sucrose preference test, forced swim test, elevated plus maze test, and spontaneous locomotor activity test. Following behavioral testing, rodents were scarified and their hippocampi collected for biochemical analysis. After the behavioral assessments, mice were sacrificed, and their brains were rapidly removed and chilled in an ice-cold saline solution. The hippocampi were dissected on a cold plate, frozen, and stored at −80 °C until assay. On the day of experiments, tissues were thawed on ice and homogenized (1:9 w/v) in phosphate-buffered saline (4 °C) and protease inhibitor cocktail was added. The 10% homogenates were prepared and homogenized for 30 s with TissueRuptor homogenizer. The homogenized tissues were centrifuged (2500×g at 4 °C for 20 min), and the supernatants were collected for further assays. Protein concentrations of BDNF and NGF in homogenates from hippocampi were determined using the enzyme-linked immunosorbent assay (ELISA) kits (BDNF: DZE201020014, SunRed Biotechnology Company; NGF: MBS825100, MyBioSource) according to the manufacturer’s instructions. […] The samples were analyzed in duplicates, and the mean concentrations were calculated. […] The intensity of the color was read at 450 nm. Absorbance was measured in a multifunction plate reader (POLARstar Omega, BMG Labtech, Germany). […]

The subject of assay [5] is BDNF level in the hippocampus. Briefly: BDNF level in the hippocampus (ELISA), chronic administration. As to conditions: for effect on corticosterone-induced decrease in BDNF level in the hippocampus: 21 days. In kind it is in vivo, mice. The procedure: as §1
Where [6] appears, read: 1.25 mg/kg i.p. 21 days + corticosterone.
Where [7] appears, read: corticosterone 20 mg/kg s.c. 21 days + saline.

As to `CNCCC(Oc1ccc(C(F)(F)F)cc1)c1ccccc1` (stereo not shown) [fluoxetine, reference compound], in assay [1] (10 mg/kg i.p., 21 days), the “effect on corticosterone-induced decrease in number of open arm entries” value was “prevented the decreases” and the “effect on corticosterone-induced decrease in time spent in the open arms” value was “prevented the decreases in the time spent in the open arms”. Further, the “effect on corticosterone-induced decrease in sucrose intake” value in assay [2] (10 mg/kg i.p.) is recorded as “prevented the decrease in sucrose intake”. Also, in assay [3] (10 mg/kg i.p. 21 days + corticosterone), the “Number of crossings ± S.E.M” value was 510.3 ± 54.0 and 423.3 ± 47.3. The “effect on corticosterone-induced decrease in NGF level in the hippocampus” value in assay [4] (10 mg/kg i.p.) was “protected corticosterone-treated mice from the decrease in the NGF level”. For the same compound, the “effect on corticosterone-induced decrease in BDNF level in the hippocampus” value in assay [5] (10 mg/kg i.p.) was “protected corticosterone-treated mice from the decrease in the BDNF level”.

With `COc1ccccc1N1CCN(CCOCCOc2c(C)cccc2C)CC1.Cl` [HBK-14, 1-[(2,6-Dimethylphenoxy)ethoxyethyl]-4-(2-methoxyphenyl)piperazine hydrochloride], in assay [1] (2.5 mg/kg i.p., 21 days), the “effect on corticosterone-induced decrease in number of open arm entries” value was “prevented the decreases”. Besides, the “effect on corticosterone-induced decrease in time spent in the open arms” value in assay [1] (2.5 mg/kg i.p., 21 days) was “prevented the decreases in the time spent in the open arms”. Besides, in assay [1] (2.5 mg/kg i.p., 21 days, vs fluoxetine 10 mg/kg), the “number of open arms entries compared with fluoxetine” value is given as “significantly increased”. Moreover, the “effect on corticosterone-induced decrease in sucrose intake” value in assay [2] (1.25 or 2.5 mg/kg i.p.) is “inactive”. Moreover, the “Number of crossings ± S.E.M” value in assay [3] (setting [6]) came out at 406.3 ± 64.2; in assay [3] (2.5 mg/kg i.p. 21 days + corticosterone) it was 400.8 ± 55.8.

As for `COc1ccccc1N1CCN(CCOCCOc2c(C)cccc2Cl)CC1.Cl` [HBK-15, 1-[(2-chloro-6-methylphenoxy)ethoxyethyl]-4-(2-methoxyphenyl)piperazine hydrochloride], in assay [1] (2.5 mg/kg i.p., 21 days), the “effect on corticosterone-induced decrease in number of open arm entries” value was “prevented the decreases”. Moreover, the “effect on corticosterone-induced decrease in time spent in the open arms” value in assay [1] (2.5 mg/kg i.p., 21 days) is reported as “prevented the decreases in the time spent in the open arms”. Besides, the “effect on corticosterone-induced decrease in sucrose intake” value in assay [2] (1.25 mg/kg i.p.) was “prevented the decrease in sucrose intake”. Moreover, the results for the “Number of crossings ± S.E.M” value in assay [3] (0.625 mg/kg i.p. 21 days + corticosterone) and in assay [3] (setting [6]) were 466.1 ± 84.8 and 478.9 ± 78.8, respectively. Further, in assay [4] (1.25 mg/kg i.p.), the “effect on corticosterone-induced decrease in NGF level in the hippocampus” value is on record as “protected corticosterone-treated mice from the decrease in the NGF level”. For the same compound, the “effect on corticosterone-induced decrease in BDNF level in the hippocampus” value in assay [5] (1.25 mg/kg i.p.) was “protected corticosterone-treated mice from the decrease in the BDNF level”.

Turning to `C[C@]12C[C@H](O)[C@H]3[C@@H](CCC4=CC(=O)CC[C@@]43C)[C@@H]1CC[C@@H]2C(=O)CO` [corticosterone], in assay [1] (setting [7]), the “decrease in open arm entries vs control” value was 56% and 48%; the “decrease in time spent in the open arms vs control” value was 48%. Also, the “decrease in percentage intake of sucrose solution vs control” value in assay [2] (setting [7]) was 17% and 21%. Moreover, the “Number of crossings ± S.E.M” value in assay [3] (setting [7]) is 343.4 ± 27.3 and 394.5 ± 67.1. Also, the “decrease in NGF level in the hippocampus vs control” value in assay [4] (setting [7]) stood at 35%. The “decrease in BDNF level in the hippocampus vs control” value in assay [5] (setting [7]) came to 44.0%.
